Laboratory results: patent US20240277829A1, “HIV-1 VACCINATION AND SAMT-247 MICROBICIDE TO PREVENT HIV-1 INFECTION” (priority 2021, published 2024)

How the values were obtained:
CD14^+ cells = experiment: Efferocytosis assay using SAMT-247 and gp120 pooled peptides; type: cell-based, macaque
Method: Efferocytosis assay. The frequency of efferocytotic CD14^+ cells was assessed by Efferocytosis Assay kit (#601770, Cayman Chemical company, Ann Arbor, MI, USA). CD14^+ cells were used as effector cells, whereas apoptotic neutrophils were used as target cells. The protocol was readapted in order to use CD14^+ monocyte cells rather than differentiated macrophages due to the low cell availability. CD14^+ cells were isolated from cryopreserved PBMCs (10×10^6 cells) collected following pre-study and 2 weeks post last immunization (week 14) or 5 weeks post last immunization (week 17) by using non-human primate CD14 microbeads (#130-091-097, Miltenyi Biotec Inc.) and following manufacturer instructions. At the end of the separation cells were counted and stained with CYTOTELL™ Blue provided by the kit and following manufacturer instructions. One unrelated macaque was used as source of neutrophils as target cells. Neutrophils were isolated as previously described (Khandpur, R., et al., Sci Transl Med 5, 178ra140 (2013)). Briefly, following isolation of PBMCs by Ficoll Plaque (GE Healthcare), the cellular pellet was added to an equal volume of 20% dextran in water, gently mixed, and incubated for 1 min. Approximately three volumes of PBS were added, mixed again and incubated in the dark for 50-60 minutes. At the end of incubation, the clear layer at the top of the tube containing neutrophils was collected. Cells were pelleted and treated with ACK lysing buffer (Quality Biological, Gaithersburg, MD, USA) for 5 min at 37° C., washed with R10 and counted. Neutrophils were stained with CFSE provided by the kit and following manufacturer instructions. The apoptosis of neutrophils was induced by treatment with Staurosporine Apoptosis inducer provided by the kit. Briefly, isolated cells were resuspended in R10 containing Staurosporine diluted 1:1000 and incubated at 37° C. for 3 hours. At the end of the incubation cells were washed twice with R10 and used for the efferocytosis assay. Subsequently, effector and apoptotic target cells were cultured alone (as controls) or cocultured at a ratio of one effector CD14^+ cell and three target apoptotic neutrophils. Cells were incubated at 37° C. for 12 hours. At the end of the coculture, cells were washed with PBS, fixed with 1% paraformaldehyde in PBS and acquired on a FACSYMPHONY™ A5 and examined using FACSDIVA™ software (BD Biosciences) by acquiring all stained cells. Data were further analyzed using FlowJo v10.1 (Treestar, Inc., Ashland, OR). The frequency of efferocytotic CD14^+ cells was determined as the frequency of double-positive cells for CYTOTELL™ Blue and CFSE on the CYTOTELL™ Blue positive monocytes.
Efferocytosis assay using SAMT-247 and gp120 pooled peptides. Efferocytosis was done as described above with the exception that SAMT-247 and/or gp120 pooled peptides were added to the co-culture for 12 hours. SAMT-247 induced Efferocytosis was measured by subtracting Efferocytosis with no SAMT-247 treated effector cells from Efferocytosis with SAMT-247 treated effector cells.

[1] = system: macaque rectal mucosal NK cells; experiment: Frequencies and cytokine levels of macaque rectal mucosal NK/ILCs following SAMT-247 and PMA stimulation; type: cell-based
From the text: Additionally, rectal tissue from 9 macaques was used for an in vitro study. The age-matched macaques from this separate study (P204) included 4 animals vaccinated against HIV and 5 naïve animals, all challenged with SHIV. Rectal tissue was obtained post challenge from 7 infected and 2 uninfected animals for the P204 study analysis. Extra cells were available from that collection and were used here for the in vitro study.
Frequencies and cytokine levels of macaque rectal mucosal NK cells and T cells following SAMT-247 and PMA stimulation. NK/ILC and T cell frequencies and cytokine levels were measured in macaque rectal mucosa. Freshly collected rectal biopsies were processed to single cells and cultured in R10 in the presence/or absence of SAMT-247 and/or PMA for 12 hours. Subsequently, cells were stained for live cells with Live/Dead Blue dye (cat. #L34962, 0.5 μl) from Thermofisher; followed by surface staining with the following: BUV737 anti-CD3 (SP34-2; cat. #741872, 5 μl), BV711 anti-CD4 (L200; cat. #563913, 5 μl), BV650 anti-NKp44 (P44-8; cat. #744302, 5 μl), Alexa700 anti-CD20 (2H7; cat. #560631, 5 μl), BV786 anti-CD45 (D058-1283; cat. #563861, 5 μl) from BD Biosciences; APC-H7 anti-CD11b (ICRF44; cat. #47-0118-42, 5 μl), PE-Cy5 anti-CD95 (ICRF44; cat. #15-0959-42, 5 μl) from eBioscience; BV570 anti-CD8 (RPA-T8; cat. #301038, 5 μl), BV605 anti-CCR6 (G034E3; cat. #353420, 5 μl), APC anti-CXCR3 (G025H7; cat. #353708, 5 μl), from Biolegend and PE-Cy7 anti-NKG2A (Z199; cat. #B10246, 5 μl) from Beckman coulter for 30 minutes at room temperature. This was followed by permeabilization with a FOX3-transcription buffer set (cat. #00-5523-00) from eBioscience according to the manufacture's recommendation and subsequently intracellular staining with the following: BV750 anti-TNF-α (MAB11; cat. #566359, 5 μl), BUV395 anti-IFN-γ (B27; cat. #563563, 5 μl), BV510 anti-GranB (GB11; cat. #563388, 5 μl), BV421 anti-IL-10 (JES3-9D7; cat. #564053, 5 μl) from BD Biosciences; PE-Cy5.5 anti-IL-17 (BL168; cat. #512314, 5 μl) from Biolegend; and FITC anti-Perforin (pf-344; cat. #3465-7, 5 μl) from MABTECH for 30 minutes at room temperature. Flow cytometry acquisitions were performed on a FACSymphony A5 and examined using FACSDiva software (BD Biosciences).

[2] = CD14^+ cells collected pre and two weeks after last immunization
[3] = sorted monocytes from PBMCs stimulated with gp120 peptides ± SAMT-247
[4] = macaque rectal mucosal NK cells, PMA

Structure (SMILES): CC(=O)Sc1ccccc1C(=O)NCCC(N)=O [SAMT-247]
- per-cell amount of engulfed apoptotic cells (MFI) (CD14^+ cells; [2]): augmented
- percentage of CD14^+ cells engulfing apoptotic cells (CD14^+ cells; [2]): augmented
- Function (CD14^+ cells; Monocytes unstimulated or +gp120 peptides): >Efferocytosis
- per-cell amount of cells engulfed (MFI) (CD14^+ cells; [3]): reconstituted
- percentage of CD14^+ cells engulfing apoptotic neutrophils (CD14^+ cells; [3]): reconstituted
- Cytokine ([1]; NKp44^+, Mucosa, PMA): >IL-17
- Function ([1]; NKp44^+, Mucosa, PMA): >Epithelium
- IFN-γ and TNF-α production [1, 4]: decreased
- NKG2A^+ cells expressing granzyme B and perforin [1, 4]: increased
- percentage of NKp44^+ cells producing IL-17 ([1]; mucosal cells from 9 macaques exposed in vitro): augmented
- ability of NKG2A^−NKp44^− cells to produce IFN-γ ([1]; mucosal cells in vitro): tended to decrease
- frequency of the NKG2A^−NKp44^− population ([1]; mucosal cells in vitro): decreased
